Experimental data reported in the NIST ThermoML archive (doi:10.1021/je700021f).

Assays:
[1] = 101 kPa, Liquid, Pulse-echo method
[2] = xn = mol fraction of the nth substance listed; conditions: 101 kPa, Liquid, Pulse-echo method, x1 = 1

CCCCCCCCCCl [1-chlorononane]
[1]
Conditions	speed of sound [m/s]
293.15 K	1297.2
298.15 K	1278.2
303.15 K	1259.5
308.15 K	1240.9
313.15 K	1222.5
318.15 K	1204.3
323.15 K	1186.3
328.15 K	1168.4
333.15 K	1150.7
338.15 K	1133.2
343.15 K	1115.9
348.15 K	1098.8
353.15 K	1081.9
358.15 K	1065.1
363.15 K	1048.5
368.15 K	1032.2
373.15 K	1015.9
378.15 K	999.1
383.15 K	982.7
388.15 K	966.4
393.15 K	950.3
398.15 K	934.3
403.15 K	918.4
408.15 K	902.6
413.15 K	887
418.15 K	871.4
423.15 K	856

CCCCCCCCC [nonane]
[1]
Conditions	speed of sound [m/s]
293.15 K	1227.3
298.15 K	1207.2
303.15 K	1187.2
308.15 K	1167.3
313.15 K	1147.5
318.15 K	1127.8
323.15 K	1108.2
328.15 K	1088.7
333.15 K	1069.3
338.15 K	1050
343.15 K	1030.8
348.15 K	1011.8
353.15 K	992.8
358.15 K	973.9
363.15 K	955.2
368.15 K	936.5
373.15 K	917.9
378.15 K	899.5
383.15 K	881.1
388.15 K	862.9
393.15 K	844.7
398.15 K	826.7
403.15 K	808.8
408.15 K	790.9
413.15 K	773.2
418.15 K	755.6
423.15 K	738

CCCCCCCCC [nonane] + CCCCCCCCCCl
[2]
Conditions	speed of sound [m/s]
293.15 K	1227.3
298.15 K	1207.2
303.15 K	1187.2
308.15 K	1167.3
313.15 K	1147.5
318.15 K	1127.8
323.15 K	1108.2
328.15 K	1088.7
333.15 K	1069.3
338.15 K	1050
343.15 K	1030.8
348.15 K	1011.8
353.15 K	992.8
358.15 K	973.9
363.15 K	955.2
368.15 K	936.5
373.15 K	917.9
378.15 K	899.5
383.15 K	881.1
388.15 K	862.9
393.15 K	844.7
398.15 K	826.7
403.15 K	808.8
408.15 K	790.9
413.15 K	773.2
418.15 K	755.6
423.15 K	738
